The subject of one data set is Shigella flexnerii. In words: "In vitro" MIC, Shigella flexnerii. In kind it is cell-based. As to conditions: 20 h, read-out: "In vitro" MIC. The method, then:
(§1) Antimicrobial pharmacological activity (G. L. Daquet and Y. A. Chabbect, Techniques en bacteriologie (Techniques in bacteriology), vol. 3, Flammarion Medecine-Sciences, Paris, 1972, and W. B. Hugo and A. D. Rusell, Pharmaceutical Microbiology, Blackwell Scientific Publications, London (1977).
(§2) A streak culture of each of the microorganisms is formed in tubes of antibiotics agar no. 1 and incubated for 20 hours at 37° C. A culture loop is then taken and a culture is formed in a tryptone-soya broth and incubated for 20 hours at 37° C. The resulting culture is diluted to 1/4 with Ringer's physiological solution to give a standardized suspension of 10^5 ufc/ml for each organism.
(§3) Starting from a solution of 1000 μg/ml in 0.1N NaOH, each product is diluted successively in dextrose agar (melted beforehand and kept at 50° C.) to give the following concentrations: 64-32-16-8-4-2-1-0.5-0.25-0.125 μg of derivative/ml of medium.
(§4) After this, each concentration of each product is divided up into Petri dishes of 10 cm diameter at a rate of 10 ml of medium per dish and using as many dishes as there are microorganisms to be tested.
(§5) Once the medium has cooled, the dishes are treated with the inoculations at a rate of 0.4 ml of inoculation per dish. They are spread out with a Drigalski loop and the supernatant is collected. The inoculated dishes are incubated at 37° C. for 20 hours.

Data set [1] relates to Pseudomonas aeruginosa 25115. Put plainly: "In vitro" MIC, Pseudomonas aeruginosa 25115. In kind it is cell-based. As to conditions: Pseudomonas aeruginosa 25115; dextrose agar, 37° C., 20 hours; read-out: "In vitro" MIC. On the procedure: as §1
Pseudomonas aeruginosa 25115
as §2, §3, §4, §5

For data set [2], the system named is Citrobacter freundii ATCC 11606. Put plainly: "In vitro" MIC, Citrobacter freundii. To be noted: ATCC11606; Citrobacter freundii ATCC 11606; dextrose agar, 37° C., 20 hours; read-out: "In vitro" MIC. Type of data set: cell-based. On the procedure:
as §1
Citrobacter freundii ATCC 11606
as §2, §3, §4, §5

The subject of another data set is Escherichia coli R-1513. Put plainly: "In vitro" MIC, Escherichia coli R-1513. Type of data set: cell-based. To be noted: R1513; Escherichia coli R-1513; dextrose agar, 37° C., 20 hours; read-out: "In vitro" MIC. On the procedure: as §1, §2, §3, §4, §5
Data set [3] has as its system Enterobacter aerogenes ATCC 15038. Put plainly: "In vitro" MIC, Enterobacter aerogenes. In kind it is cell-based. To be noted: Klebsiella aerogenes, ATCC15038; Enterobacter aerogenes ATCC 15038; dextrose agar, 37° C., 20 hours; read-out: "In vitro" MIC. The method, then: as §1
Enterobacter aerogenes ATCC 15038
as §2, §3, §4, §5

A further data set has as its system Proteus morganii CHSP-16. Put plainly: "In vitro" MIC, Proteus morganii. In kind it is cell-based. As to conditions: Morganella morganii, CHSP16; Proteus morganii CHSP-16; dextrose agar, 37° C., 20 hours; read-out: "In vitro" MIC. On the procedure:
as §1, §2, §3, §4, §5

The test system of a further data set is Gram-positive cocci. In words: "In vitro" antimicrobial activity compared with nalidixic acid, Gram-positive cocci. Type of data set: cell-based. The method, then: as §1, §2, §3, §4, §5
The subject of data set [4] is Enterobacter cloacae CHSP-20. Put plainly: "In vitro" MIC, Enterobacter cloacae. In kind it is cell-based. As to conditions: CHSP20; Enterobacter cloacae CHSP-20; dextrose agar, 37° C., 20 hours; read-out: "In vitro" MIC. The method, then: as §1
Enterobacter cloacae CHSP-20
as §2, §3, §4, §5

The subject of data set [5] is Gram-negative microorganisms. In words: "In vitro" antimicrobial activity compared with nalidixic acid, Gram-negative microorganisms. In kind it is cell-based. The method, then: as §1, §2, §3, §4, §5
The test system of the next data set is Sarcina lutea ATCC 9341. In words: "In vitro" MIC, Sarcina lutea. In kind it is cell-based. To be noted: Micrococcus luteus, ATCC9341; Sarcina lutea ATCC 9341; dextrose agar, 37° C., 20 hours; read-out: "In vitro" MIC. The method, then:
as §1, §2, §3, §4, §5

Data set [6] has as its system Klebsiella pneumoniae ATCC 10031. Put plainly: "In vitro" MIC, Klebsiella pneumoniae. As to conditions: ATCC10031; Klebsiella pneumoniae ATCC 10031; dextrose agar, 37° C., 20 hours; read-out: "In vitro" MIC. In kind it is cell-based. The method, then:
as §1
Klebsiella pneumoniae ATCC 10031
as §2, §3, §4, §5

Data set [7] has as its system Proteus mirabilis ATCC 4675. In words: "In vitro" MIC, Proteus mirabilis. Type of data set: cell-based. To be noted: ATCC4675; Proteus mirabilis ATCC 4675; dextrose agar, 37° C., 20 hours; read-out: "In vitro" MIC. The method, then:
as §1
Proteus mirabilis ATCC 4675
as §2, §3, §4, §5

The test system of data set [8] is Micrococcus flavus ATCC 10240. In words: "In vitro" MIC, Micrococcus flavus. In kind it is cell-based. As to conditions: ATCC10240; Micrococcus flavus ATCC 10240; dextrose agar, 37° C., 20 hours; read-out: "In vitro" MIC. On the procedure: as §1
Micrococcus flavus ATTC 10240
as §2, §3, §4, §5

Data set [9] deals with Bacillus subtilis ATCC 6633. In words: "In vitro" MIC, Bacillus subtilis. In kind it is cell-based. As to conditions: ATCC6633; Bacillus subtilis ATCC 6633; dextrose agar, 37° C., 20 hours; read-out: "In vitro" MIC. On the procedure: as §1
Bacillus subtilis ATCC 6633
as §2, §3, §4, §5

Data set [10] concerns Escherichia coli ATCC 10536. In words: "In vitro" MIC, Escherichia coli ATCC 10536. In kind it is cell-based. As to conditions: ATCC10536; Escherichia coli ATCC 10536; dextrose agar, 37° C., 20 hours; read-out: "In vitro" MIC. On the procedure:
as §1
Escherichia coli ATCC 10536
as §2, §3, §4, §5

Data set [11] relates to Serratia marcescens ATTC 13880. Put plainly: "In vitro" MIC, Serratia marcescens. Type of data set: cell-based. As to conditions: ATTC13880; Serratia marcescens ATTC 13880; dextrose agar, 37° C., 20 hours; read-out: "In vitro" MIC. The method, then:
as §1
Serratia marcescens ATTC 13880
as §2, §3, §4, §5

Data set [12] relates to Streptococcus faecalis ATCC 10541. In words: "In vitro" MIC, Streptococcus faecalis. As to conditions: Enterococcus faecalis, ATCC10541; Streptococcus faecalis ATCC 10541; dextrose agar, 37° C., 20 hours; read-out: "In vitro" MIC. Type of data set: cell-based. On the procedure: as §1
Streptococcus faecalis ATCC 10541
as §2, §3, §4, §5

Data set [13] deals with Pseudomonas aeruginosa ADSA 47. Put plainly: "In vitro" MIC, Pseudomonas aeruginosa ADSA 47. To be noted: ADSA47; Pseudomonas aeruginosa ADSA 47; dextrose agar, 37° C., 20 hours; read-out: "In vitro" MIC. In kind it is cell-based. On the procedure:
as §1
Pseudomonas aeruginosa ADSA 47
as §2, §3, §4, §5

Data set [14] has as its system Salmonella typhimurium AMES 100. Put plainly: "In vitro" MIC, Salmonella typhimurium AMES 100. Type of data set: cell-based. To be noted: Salmonella enterica; Salmonella typhimurium AMES 100; dextrose agar, 37° C., 20 hours; read-out: "In vitro" MIC. On the procedure: as §1
Salmonella typhimurium AMES 100
as §2, §3, §4, §5

Data set [15] has as its system Salmonella typhimurium AMES 98. Put plainly: "In vitro" MIC, Salmonella typhimurium AMES 98. In kind it is cell-based. To be noted: Salmonella enterica; Salmonella typhimurium AMES 98; dextrose agar, 37° C., 20 hours; read-out: "In vitro" MIC. On the procedure:
as §1
Salmonella typhimurium AMES 98
as §2, §3, §4, §5

In data set [16] the test system is Staphylococcus aureus ATCC 25178. In words: "In vitro" MIC, Staphylococcus aureus ATCC 25178. To be noted: ATCC25178; Staphylococcus aureus ATCC 25178; dextrose agar, 37° C., 20 hours; read-out: "In vitro" MIC. Type of data set: cell-based. On the procedure: as §1
Staphylococcus aureus ATCC 25178
as §2, §3, §4, §5

The next data set is described as follows: Acute toxicity to mice. To be noted: mouse, in vivo, ip, suspension in 5% gum arabic, mortality over 7 days. The method, then:
The experimental animals used to determine this toxicity were albino mice of the C.F.L.P. strain and of both sexes, weighing between 19 and 25 grams. After an 18-hour fasting period with water "ad libitum", the derivatives forming the subject of the present invention are administered intraperitoneally as a suspension in 5% gum arabic. The volume of suspension administered was 0.4 ml/20 grams (20 ml/kg) in all cases, the concentration of the suspension being changed according to the dose administered.
One hour after administration of the derivatives, the animals are given a standard Panlab rat-mouse food. The mortality was observed over a period of 7 days. Differences in mortality between the sexes were not observed with any of the products.

The test system of data set [17] is Staphylococcus aureus ATCC 5488/23. Put plainly: "In vitro" MIC, Staphylococcus aureus ATCC 5488/23. In kind it is cell-based. As to conditions: ATCC5488; Staphylococcus aureus ATCC 5488/23; dextrose agar, 37° C., 20 hours; read-out: "In vitro" MIC. On the procedure: as §1
Staphylococcus aureus ATCC 5488/23
as §2, §3, §4, §5

≈ marks a conversion by molar mass, not a printed value.

As a reminder, the MIC is the smallest concentration in the dilution series that meets the test's criterion for growth inhibition. As a reminder, the LD50 is the dose expected to kill half of the subjects tested. High values mean a less toxic substance, low ones a more toxic substance. Regarding `Cn1cc(C(=O)O)c(=O)c2cc(F)c(-n3cccc3)cc21` [Example 1, 6-fluoro-7-(pyrrol-1-yl)-1-methyl-4-oxo-1,4-dihydroquinoline-3-carboxylic acid], the MIC in the data set on Shigella flexnerii was found to be 4 µg/mL (≈ 14 µM); in [1], 16 µg/mL (≈ 55.9 µM); in data set [2] it was 2 µg/mL (≈ 6.99 µM); with Escherichia coli R-1513 it was 4 µg/mL (≈ 14 µM); in data set [3], 2 µg/mL (≈ 6.99 µM); with Proteus morganii CHSP-16 it was 2 µg/mL (≈ 6.99 µM). The MIC came to 2 µg/mL (≈ 6.99 µM) in data set [4]; 16 µg/mL (≈ 55.9 µM) with Sarcina lutea ATCC 9341; 1 µg/mL (≈ 3.49 µM) in data set [6]; 4 µg/mL (≈ 14 µM) in data set [7]; 4 µg/mL (≈ 14 µM) in data set [8]; 0.125 µg/mL (≈ 0.437 µM) in data set [9]. In addition, the MIC in data set [10] was 0.05 µg/mL (≈ 0.175 µM); in data set [11], 16 µg/mL (≈ 55.9 µM); in data set [12], 32 µg/mL (≈ 112 µM); in [13] it was ≥ 32 µg/mL; in data set [14], 8 µg/mL (≈ 27.9 µM); in data set [15], 4 µg/mL (≈ 14 µM). The MIC in data set [16] and in data set [17] was 0.5 µg/mL (≈ 1.75 µM) each time. The “"in vitro" activity compared with nalidixic acid” value in the data set on Gram-positive cocci is on record as “greater activity towards Gram-positive cocci”. In addition, in [5], the “activity compared with nalidixic acid” value is “activity of the same order as nalidixic acid”. In the data set “Acute toxicity to mice”, the LD50 at 168 h was > 800 mg/kg.

For `O=C(O)c1cn(CC2CC2)c2cc(-n3cccc3)c(F)cc2c1=O` [Example 4, 6-fluoro-7-(pyrrol-1-yl)-1-cyclopropylmethyl-4-oxo-1,4-dihydroquinoline-3-carboxylic acid], the MIC in the data set with Shigella flexnerii was 4 µg/mL (≈ 12.3 µM); in data set [1], ≥ 32 µg/mL; in data set [2], 16 µg/mL (≈ 49 µM); in the data set with Escherichia coli R-1513 it was 8 µg/mL (≈ 24.5 µM); in data set [3], 8 µg/mL (≈ 24.5 µM); in the data set on Proteus morganii CHSP-16, 8 µg/mL (≈ 24.5 µM). For the same molecule, the MIC worked out at 4 µg/mL (≈ 12.3 µM) in data set [4]; 8 µg/mL (≈ 24.5 µM) with Sarcina lutea ATCC 9341; 1 µg/mL (≈ 3.06 µM) in [6]; 32 µg/mL (≈ 98.1 µM) in data set [7]; 1 µg/mL (≈ 3.06 µM) in data set [8]; 0.125 µg/mL (≈ 0.383 µM) in data set [9]. Also, the MIC in [10] is 0.25 µg/mL (≈ 0.766 µM); in data set [11] it was 4 µg/mL (≈ 12.3 µM); in data set [12], 16 µg/mL (≈ 49 µM); in [13], ≥ 32 µg/mL; in [14], 2 µg/mL (≈ 6.13 µM); in [15], 0.25 µg/mL (≈ 0.766 µM). Moreover, the MIC in [16] stood at 1 µg/mL (≈ 3.06 µM); in [17], 2 µg/mL (≈ 6.13 µM). Further, the “"in vitro" activity compared with nalidixic acid” value in the data set with Gram-positive cocci is given as “greater activity towards Gram-positive cocci”. For the same molecule, the “activity compared with nalidixic acid” value in data set [5] is recorded as “activity of the same order as nalidixic acid”. Besides, the LD50 at 168 h in the data set “Acute toxicity to mice” was > 1600 mg/kg.

These data come from US4727080A, “1-substituted derivatives of 6-fluoro-7-(pyrrol-1-yl)-1,4-dihydro-4-oxoquinoline-3-carboxylic acid, their preparation and their application as drugs” (Provesan S.A., priority 1984, dated 1988).
